For one compound, Ki results are on record in PMC3410622 (2012).

The experiment concerns the target glutamate carboxypeptidase II (GCPII) (Homo sapiens, UniProt Q04609). It is filed as biochemical.

Sequence of glutamate carboxypeptidase II (GCPII) (Q04609 whole entry): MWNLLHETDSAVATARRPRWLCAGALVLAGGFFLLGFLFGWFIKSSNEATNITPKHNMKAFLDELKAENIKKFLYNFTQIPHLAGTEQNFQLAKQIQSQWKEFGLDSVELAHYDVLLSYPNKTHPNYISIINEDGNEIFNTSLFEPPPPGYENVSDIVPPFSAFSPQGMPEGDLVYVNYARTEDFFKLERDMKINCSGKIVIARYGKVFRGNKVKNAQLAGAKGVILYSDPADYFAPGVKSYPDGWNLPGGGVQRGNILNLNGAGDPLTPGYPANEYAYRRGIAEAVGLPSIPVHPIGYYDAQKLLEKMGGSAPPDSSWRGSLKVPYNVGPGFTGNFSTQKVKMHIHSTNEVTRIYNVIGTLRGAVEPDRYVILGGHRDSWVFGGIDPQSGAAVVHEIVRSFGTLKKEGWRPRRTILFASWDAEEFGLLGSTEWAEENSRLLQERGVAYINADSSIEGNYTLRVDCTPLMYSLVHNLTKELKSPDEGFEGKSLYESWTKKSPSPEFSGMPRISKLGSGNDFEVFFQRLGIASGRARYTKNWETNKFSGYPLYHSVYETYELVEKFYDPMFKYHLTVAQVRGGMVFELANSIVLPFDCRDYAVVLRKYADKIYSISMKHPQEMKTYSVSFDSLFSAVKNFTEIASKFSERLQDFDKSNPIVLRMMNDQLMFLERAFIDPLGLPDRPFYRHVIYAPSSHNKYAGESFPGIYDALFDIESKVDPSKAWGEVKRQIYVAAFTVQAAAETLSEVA

By Ki is commonly meant a measure of affinity in units of concentration, obtained from inhibition or displacement. The low end stands for a stronger hold on the target, the high end for a looser hold on the target. `CCC[C@H](NC(=O)N[C@@H](CCC(=O)O)C(=O)O)C(=O)O` [ZJ44, N-[[[(1S)-1-Carboxy-3-methylpropyl]amino]carbonyl]-L-glutamic acid] gave an inhibition constant Ki of 39.4 ± 2.9 nM.
